Laboratory results published in ChEMBL document CHEMBL3826966, “A chromatography-free isolation of rohitukine from leaves of Dysoxylum binectariferum: Evaluation for in vitro cytotoxicity, Cdk inhibition and physicochemical properties” (Bioorg Med Chem Lett, 2016).
In brackets after ≈: the same amount, converted by molar mass.

Assays:
[1] = target: MAP/microtubule affinity-regulating kinase 4 (Homo sapiens) (UniProt Q96L34); test: Inhibition of human MARK4 (2 to 752 residues) assessed as remaining enzyme activity at 50 uM after 30 mins by 33P-ATP filter-binding assay
[2] = target: Misshapen-like kinase 1 (Homo sapiens) (UniProt Q8N4C8); test: Inhibition of human MINK1 (1 to 320 residues) assessed as remaining enzyme activity at 50 uM after 30 mins by 33P-ATP filter-binding assay
[3] = target: Serine/threonine-protein kinase PAK 2 (Homo sapiens) (UniProt Q13177); test: Inhibition of human PAK2 assessed as remaining enzyme activity at 50 uM after 30 mins by 33P-ATP filter-binding assay
[4] = target: Serine/threonine-protein kinase TBK1 (Homo sapiens) (UniProt Q9UHD2); test: Inhibition of human TBK1 (1 to 729 residues) assessed as remaining enzyme activity at 50 uM after 30 mins by 33P-ATP filter-binding assay
[5] = target: Tyrosine-protein kinase CSK (Homo sapiens) (UniProt P41240); test: Inhibition of human CSK (1 to 450 residues) assessed as remaining enzyme activity at 50 uM after 30 mins by 33P-ATP filter-binding assay
[6] = target: Inhibitor of nuclear factor kappa-B kinase subunit beta (Homo sapiens) (UniProt O14920); test: Inhibition of human IKKb (1 to 736 residues) assessed as remaining enzyme activity at 50 uM after 30 mins by 33P-ATP filter-binding assay
[7] = target: CDK9/cyclin T1 (Homo sapiens) (UniProt O60563+P50750); test: Inhibition of human Cdk9/T1 using YSPTSPSYSPTSPSYSPTSPKKK peptide as substrate assessed as remaining enzyme activity at 50 uM after 30 mins by 33P-ATP filter-binding assay; type: protein-complex assay
[8] = target: Maternal embryonic leucine zipper kinase (Homo sapiens) (UniProt Q14680); test: Inhibition of human MELK (2 to 651 residues) assessed as remaining enzyme activity at 50 uM after 30 mins by 33P-ATP filter-binding assay
Homo sapiens = species: Homo sapiens; test: Inhibition of human PKA assessed as remaining enzyme activity at 50 uM after 30 mins by 33P-ATP filter-binding assay
[9] = Stability in pH 1.2 buffer at 120 ug/ml after 8 hrs by RP-HPLC analysis; type: physicochemical; conditions: pH 1.2, 8 h
[10] = target: Serine/threonine-protein kinase Chk2 (Homo sapiens) (UniProt O96017); test: Inhibition of human CHK2 (5 to 543 residues) assessed as remaining enzyme activity at 50 uM after 30 mins by 33P-ATP filter-binding assay
[11] = target: Angiopoietin-1 receptor (Homo sapiens) (UniProt Q02763); test: Inhibition of human TIE2 (771 to 1124 residues) assessed as remaining enzyme activity at 50 uM after 30 mins by 33P-ATP filter-binding assay
[12] = Thermodynamic equilibrium solubility in stimulated gastric fluid at 120 ug/ml at pH 1.2 by HPLC analysis; type: ADME; conditions: simulated gastric fluid, read-out: Therm_solubility
[13] = target: AMP-activated protein kinase, AMPK (Homo sapiens) (UniProt P54646+O43741+P54619+Q9UGJ0+Q9Y478+Q13131+Q9UGI9); test: Inhibition of human AMPK assessed as remaining enzyme activity at 50 uM after 30 mins by 33P-ATP filter-binding assay; type: protein-complex assay
[14] = target: Insulin-like growth factor 1 receptor (Homo sapiens) (UniProt P08069); test: Inhibition of human IGF1R (954 to 1367 residues) assessed as remaining enzyme activity at 50 uM after 30 mins by 33P-ATP filter-binding assay
[15] = target: Serine/threonine-protein kinase tousled-like 1 (Homo sapiens) (UniProt Q9UKI8); test: Inhibition of human TLK1 (1 to 766 residues) assessed as remaining enzyme activity at 50 uM after 30 mins by 33P-ATP filter-binding assay
[16] = target: Serine/threonine-protein kinase Sgk1 (Homo sapiens) (UniProt O00141); test: Inhibition of human SGK1 assessed as remaining enzyme activity at 50 uM after 30 mins by 33P-ATP filter-binding assay
[17] = target: Mitogen-activated protein kinase 1 (Homo sapiens) (UniProt P28482); test: Inhibition of human ERK2 (2 to 360 residues) assessed as remaining enzyme activity at 50 uM after 30 mins by 33P-ATP filter-binding assay
[18] = target: RAC-alpha serine/threonine-protein kinase (Homo sapiens) (UniProt P31749); test: Inhibition of human PKBalpha assessed as remaining enzyme activity at 50 uM after 30 mins by 33P-ATP filter-binding assay
[19] = target: Tyrosine-protein kinase Yes (Homo sapiens) (UniProt P07947); test: Inhibition of human YES1 (1 to 543 residues) assessed as remaining enzyme activity at 50 uM after 30 mins by 33P-ATP filter-binding assay
[20] = target: Eukaryotic elongation factor 2 kinase (Homo sapiens) (UniProt O00418); test: Inhibition of human EF2K (2 to 725 residues) assessed as remaining enzyme activity at 50 uM after 30 mins by 33P-ATP filter-binding assay
[21] = target: Serine/threonine-protein kinase 24 (Homo sapiens) (UniProt Q9Y6E0); test: Inhibition of human MST3 (2 to 431 residues) assessed as remaining enzyme activity at 50 uM after 30 mins by 33P-ATP filter-binding assay
[22] = Cytotoxicity against human SNB75 cells assessed as cell growth inhibition after 48 hrs by MTT assay; type: functional; conditions: SNB-75, 48 h
K562 = test: Cytotoxicity against human K562 cells assessed as cell growth inhibition after 48 hrs by MTT assay; type: functional; conditions: K562, 48 h
[23] = target: Protein kinase C alpha type (Homo sapiens) (UniProt P17252); test: Inhibition of human PKCalpha (1 to 672 residues) assessed as remaining enzyme activity at 50 uM after 30 mins by 33P-ATP filter-binding assay
[24] = target: Aurora kinase B (Homo sapiens) (UniProt Q96GD4); test: Inhibition of human Aurora B (1 to 344 residues) assessed as remaining enzyme activity at 50 uM after 30 mins by 33P-ATP filter-binding assay
[25] = target: Casein kinase II (Homo sapiens) (UniProt P67870+P68400+P19784); test: Inhibition of human CK2 assessed as remaining enzyme activity at 50 uM after 30 mins by 33P-ATP filter-binding assay; type: protein-complex assay
[26] = target: Serine/threonine-protein kinase Nek2 (Homo sapiens) (UniProt P51955); test: Inhibition of human NEK2a (1 to 445 residues) assessed as remaining enzyme activity at 50 uM after 30 mins by 33P-ATP filter-binding assay
[27] = target: Myosin light chain kinase, smooth muscle (Homo sapiens) (UniProt Q15746); test: Inhibition of human SmMLCK (475 to 838 residues) assessed as remaining enzyme activity at 50 uM after 30 mins by 33P-ATP filter-binding assay
[28] = target: MAP/microtubule affinity-regulating kinase 3 (Homo sapiens) (UniProt P27448); test: Inhibition of human MARK3 (2 to 729 residues) assessed as remaining enzyme activity at 50 uM after 30 mins by 33P-ATP filter-binding assay
Sequence of MAP/microtubule affinity-regulating kinase 3 (Homo sapiens) (P27448 whole entry, looked up, the tested form may be a part): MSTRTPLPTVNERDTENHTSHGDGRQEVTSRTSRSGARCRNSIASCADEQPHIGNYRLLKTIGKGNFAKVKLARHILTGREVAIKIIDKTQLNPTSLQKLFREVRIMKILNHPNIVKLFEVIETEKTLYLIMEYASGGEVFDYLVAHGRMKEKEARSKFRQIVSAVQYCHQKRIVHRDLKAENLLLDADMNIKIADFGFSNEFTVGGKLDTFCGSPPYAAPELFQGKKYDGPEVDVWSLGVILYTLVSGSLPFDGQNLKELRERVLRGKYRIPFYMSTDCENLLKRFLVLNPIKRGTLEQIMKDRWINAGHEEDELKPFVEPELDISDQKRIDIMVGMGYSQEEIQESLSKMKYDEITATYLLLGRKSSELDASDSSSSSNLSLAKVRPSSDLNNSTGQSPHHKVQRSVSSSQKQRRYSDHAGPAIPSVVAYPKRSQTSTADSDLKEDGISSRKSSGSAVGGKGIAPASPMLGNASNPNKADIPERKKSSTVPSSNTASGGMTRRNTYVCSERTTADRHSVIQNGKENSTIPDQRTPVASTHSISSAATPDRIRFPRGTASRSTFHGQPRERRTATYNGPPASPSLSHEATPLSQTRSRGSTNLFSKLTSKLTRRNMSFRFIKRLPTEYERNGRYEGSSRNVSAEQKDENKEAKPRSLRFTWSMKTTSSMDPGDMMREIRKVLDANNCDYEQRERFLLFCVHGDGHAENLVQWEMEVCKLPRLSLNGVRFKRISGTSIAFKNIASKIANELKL

Sequence of Maternal embryonic leucine zipper kinase (Homo sapiens) (Q14680 whole entry, looked up, the tested form may be a part): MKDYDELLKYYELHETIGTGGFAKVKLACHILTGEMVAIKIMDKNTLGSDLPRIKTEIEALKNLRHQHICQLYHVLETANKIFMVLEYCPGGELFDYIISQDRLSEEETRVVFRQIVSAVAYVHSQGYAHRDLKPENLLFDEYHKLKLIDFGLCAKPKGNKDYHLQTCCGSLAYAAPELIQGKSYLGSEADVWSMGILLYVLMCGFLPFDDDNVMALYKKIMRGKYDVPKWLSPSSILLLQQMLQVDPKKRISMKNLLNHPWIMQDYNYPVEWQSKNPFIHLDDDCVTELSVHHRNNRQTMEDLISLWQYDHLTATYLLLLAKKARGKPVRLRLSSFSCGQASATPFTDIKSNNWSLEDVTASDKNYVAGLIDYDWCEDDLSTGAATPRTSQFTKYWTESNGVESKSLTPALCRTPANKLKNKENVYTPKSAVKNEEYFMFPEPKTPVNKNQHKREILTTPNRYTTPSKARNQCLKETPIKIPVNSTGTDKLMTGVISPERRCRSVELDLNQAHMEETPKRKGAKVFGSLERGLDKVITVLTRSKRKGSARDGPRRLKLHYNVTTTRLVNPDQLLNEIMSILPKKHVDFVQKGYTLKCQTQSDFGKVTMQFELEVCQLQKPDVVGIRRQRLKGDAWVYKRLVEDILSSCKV
Sequence of Insulin-like growth factor 1 receptor (Homo sapiens) (P08069 31-736 limits assumed): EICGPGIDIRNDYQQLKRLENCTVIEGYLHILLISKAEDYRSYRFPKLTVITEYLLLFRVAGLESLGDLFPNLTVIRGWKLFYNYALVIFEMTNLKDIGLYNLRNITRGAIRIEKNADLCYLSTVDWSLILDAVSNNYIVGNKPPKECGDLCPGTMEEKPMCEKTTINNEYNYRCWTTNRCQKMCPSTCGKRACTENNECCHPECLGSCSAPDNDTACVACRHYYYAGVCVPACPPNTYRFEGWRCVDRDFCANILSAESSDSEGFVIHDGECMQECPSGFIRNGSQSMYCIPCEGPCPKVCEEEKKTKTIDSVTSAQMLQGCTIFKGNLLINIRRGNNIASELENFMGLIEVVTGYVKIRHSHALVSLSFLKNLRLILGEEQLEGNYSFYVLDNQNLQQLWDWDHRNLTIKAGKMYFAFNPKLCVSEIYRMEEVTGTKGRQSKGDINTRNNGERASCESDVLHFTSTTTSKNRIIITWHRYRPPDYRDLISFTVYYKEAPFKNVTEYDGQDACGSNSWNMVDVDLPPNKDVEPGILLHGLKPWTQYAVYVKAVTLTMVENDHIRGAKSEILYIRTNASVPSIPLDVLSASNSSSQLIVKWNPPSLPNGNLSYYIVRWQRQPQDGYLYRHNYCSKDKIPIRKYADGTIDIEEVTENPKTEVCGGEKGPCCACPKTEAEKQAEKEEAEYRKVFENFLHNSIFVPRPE
Sequence of Insulin-like growth factor 1 receptor (Homo sapiens) (P08069 741-1367 limits assumed): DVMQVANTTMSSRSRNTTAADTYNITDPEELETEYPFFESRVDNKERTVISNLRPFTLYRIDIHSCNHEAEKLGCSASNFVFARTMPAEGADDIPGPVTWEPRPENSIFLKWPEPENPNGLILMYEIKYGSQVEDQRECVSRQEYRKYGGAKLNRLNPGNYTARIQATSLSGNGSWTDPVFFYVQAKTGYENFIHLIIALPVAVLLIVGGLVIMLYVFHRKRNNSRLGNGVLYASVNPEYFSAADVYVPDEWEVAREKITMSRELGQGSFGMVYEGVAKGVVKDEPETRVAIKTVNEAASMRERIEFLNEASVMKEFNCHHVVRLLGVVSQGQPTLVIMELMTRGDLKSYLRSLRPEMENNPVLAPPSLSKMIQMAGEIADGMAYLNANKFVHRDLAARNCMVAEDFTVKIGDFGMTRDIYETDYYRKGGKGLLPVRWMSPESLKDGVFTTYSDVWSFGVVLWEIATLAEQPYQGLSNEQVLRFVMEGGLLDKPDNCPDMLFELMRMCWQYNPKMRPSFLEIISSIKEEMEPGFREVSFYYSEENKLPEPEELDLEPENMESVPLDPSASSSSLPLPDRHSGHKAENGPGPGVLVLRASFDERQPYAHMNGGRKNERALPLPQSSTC
Sequence of Tyrosine-protein kinase Yes (Homo sapiens) (P07947 2-543 limits assumed): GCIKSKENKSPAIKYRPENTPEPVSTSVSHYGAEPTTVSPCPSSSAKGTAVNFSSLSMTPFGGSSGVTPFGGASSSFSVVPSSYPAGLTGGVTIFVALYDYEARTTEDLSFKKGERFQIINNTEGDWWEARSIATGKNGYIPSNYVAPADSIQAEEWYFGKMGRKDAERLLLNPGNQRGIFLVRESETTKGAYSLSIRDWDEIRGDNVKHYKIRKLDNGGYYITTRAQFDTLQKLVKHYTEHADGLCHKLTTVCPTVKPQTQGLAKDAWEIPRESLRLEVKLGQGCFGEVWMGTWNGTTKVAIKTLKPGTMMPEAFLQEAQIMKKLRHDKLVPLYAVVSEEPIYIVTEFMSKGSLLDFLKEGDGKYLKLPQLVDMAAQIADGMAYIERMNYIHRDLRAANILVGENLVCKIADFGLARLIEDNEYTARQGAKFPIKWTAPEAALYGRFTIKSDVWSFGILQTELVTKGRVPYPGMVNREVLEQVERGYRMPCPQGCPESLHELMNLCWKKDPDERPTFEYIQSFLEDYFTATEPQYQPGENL
Sequence of Aurora kinase B (Homo sapiens) (Q96GD4 whole entry, the tested form may be a part): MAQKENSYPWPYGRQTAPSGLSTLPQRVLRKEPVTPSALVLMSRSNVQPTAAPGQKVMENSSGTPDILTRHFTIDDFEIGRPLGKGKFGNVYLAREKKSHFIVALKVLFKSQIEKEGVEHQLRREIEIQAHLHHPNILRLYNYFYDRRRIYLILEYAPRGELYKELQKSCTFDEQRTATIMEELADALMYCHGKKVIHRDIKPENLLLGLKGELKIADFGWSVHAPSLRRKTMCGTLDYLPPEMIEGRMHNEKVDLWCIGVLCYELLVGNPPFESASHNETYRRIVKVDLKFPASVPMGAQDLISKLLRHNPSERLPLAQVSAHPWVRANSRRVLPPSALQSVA
Sequence of Serine/threonine-protein kinase Chk2 (Homo sapiens) (O96017 whole entry, the tested form may be a part): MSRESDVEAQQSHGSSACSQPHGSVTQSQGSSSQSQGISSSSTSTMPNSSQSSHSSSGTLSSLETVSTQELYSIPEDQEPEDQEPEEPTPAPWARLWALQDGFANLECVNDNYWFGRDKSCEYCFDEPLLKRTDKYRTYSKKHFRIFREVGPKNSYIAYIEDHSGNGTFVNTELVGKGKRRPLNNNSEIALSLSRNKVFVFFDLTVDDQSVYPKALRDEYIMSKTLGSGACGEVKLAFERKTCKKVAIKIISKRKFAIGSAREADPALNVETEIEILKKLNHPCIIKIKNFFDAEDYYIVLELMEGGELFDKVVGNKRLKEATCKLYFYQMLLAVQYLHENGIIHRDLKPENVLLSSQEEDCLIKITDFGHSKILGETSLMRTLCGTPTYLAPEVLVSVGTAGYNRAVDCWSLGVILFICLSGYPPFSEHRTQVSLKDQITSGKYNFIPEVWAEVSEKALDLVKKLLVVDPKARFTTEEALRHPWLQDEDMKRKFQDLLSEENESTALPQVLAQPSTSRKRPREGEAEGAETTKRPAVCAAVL
Sequence of MAP/microtubule affinity-regulating kinase 4 (Homo sapiens) (Q96L34 whole entry, the tested form may be a part): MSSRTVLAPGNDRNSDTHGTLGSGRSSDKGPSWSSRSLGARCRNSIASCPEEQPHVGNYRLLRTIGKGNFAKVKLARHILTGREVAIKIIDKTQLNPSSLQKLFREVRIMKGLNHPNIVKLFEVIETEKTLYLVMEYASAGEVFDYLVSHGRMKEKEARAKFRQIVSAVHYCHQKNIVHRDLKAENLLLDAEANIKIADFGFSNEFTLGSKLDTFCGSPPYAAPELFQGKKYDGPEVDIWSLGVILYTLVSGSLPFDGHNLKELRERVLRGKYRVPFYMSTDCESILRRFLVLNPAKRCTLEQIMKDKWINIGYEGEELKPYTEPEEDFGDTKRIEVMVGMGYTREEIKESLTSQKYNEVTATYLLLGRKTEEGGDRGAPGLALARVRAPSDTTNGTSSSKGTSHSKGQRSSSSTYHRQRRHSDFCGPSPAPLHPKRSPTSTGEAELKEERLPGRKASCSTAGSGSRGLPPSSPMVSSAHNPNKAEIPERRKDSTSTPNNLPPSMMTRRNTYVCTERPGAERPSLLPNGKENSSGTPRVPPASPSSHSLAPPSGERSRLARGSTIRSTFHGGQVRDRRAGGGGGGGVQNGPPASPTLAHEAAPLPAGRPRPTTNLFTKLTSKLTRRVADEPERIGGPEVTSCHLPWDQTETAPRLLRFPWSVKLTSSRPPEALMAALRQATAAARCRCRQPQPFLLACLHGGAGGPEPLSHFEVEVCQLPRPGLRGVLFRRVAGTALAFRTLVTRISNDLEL

Activity [1]: 92% | Activity [2]: 73% | Activity [3]: 88% | Activity [4]: 55% | Activity [5]: 79% | Activity [6]: 83% | Activity [7]: 7% | Activity [8]: 80% | Activity (Homo sapiens): 88% | Stability [9]: Stable | Activity [10]: 60% | Activity [11]: 80% | solubility thermodynamic [12]: 33.4 mg/mL (≈ 109 mM) | Activity [13]: 16% | Activity [14]: 113% | Activity [15]: 109% | Activity [16]: 92% | Activity [17]: 90% | Activity [18]: 76% | Activity [19]: 57% | Activity [20]: 84% | Activity [21]: 85% | Activity [23]: 78% | Activity [24]: 58% | Activity [25]: 90% | Activity [26]: 89% | Activity [27]: 78% | Activity [28]: 41%
SMILES: Cc1cc(=O)c2c(O)cc(O)c([C@H]3CCN(C)C[C@H]3O)c2o1 [ROHITUKINE]
GI50 [22]: 22 µM | GI50 (K562): 24 µM
